From the CheMixHub ionic liquid set
± gives the uncertainty stated by the source.

Test: xn = mol fraction of the nth substance listed

CC[N+](CC)=C(N(C)C)N(C)C.O=S(=O)([N-]S(=O)(=O)C(F)(F)F)C(F)(F)F + CO
101 kPa
Conditions	electrical conductivity, 293.2 K [S/m]	viscosity, 293.15 K [mPa·s]	viscosity, 298.15 K [mPa·s]	viscosity, 303.15 K [mPa·s]	viscosity, 308.15 K [mPa·s]	viscosity, 313.15 K [mPa·s]	viscosity, 318.15 K [mPa·s]	viscosity, 323.15 K [mPa·s]
x1 = 0.0003107	0.0546 ± 0.0012	0.59 ± 0.036	0.556 ± 0.034	0.528 ± 0.032	0.493 ± 0.03	0.462 ± 0.028	0.442 ± 0.027	0.42 ± 0.025
x1 = 0.0006532	0.102 ± 0.002	0.597 ± 0.036	0.56 ± 0.034	0.532 ± 0.032	0.497 ± 0.03	0.466 ± 0.028	0.445 ± 0.027	0.423 ± 0.026
x1 = 0.00159	0.205 ± 0.004	0.604 ± 0.037	0.568 ± 0.034	0.538 ± 0.033	0.503 ± 0.03	0.471 ± 0.028	0.45 ± 0.027	0.427 ± 0.026
x1 = 0.003264	0.334 ± 0.007	0.619 ± 0.037	0.58 ± 0.035	0.55 ± 0.033	0.514 ± 0.031	0.481 ± 0.029	0.459 ± 0.028	0.435 ± 0.026
x1 = 0.006358	0.564 ± 0.012	0.646 ± 0.039	0.605 ± 0.037	0.573 ± 0.035	0.535 ± 0.032	0.5 ± 0.03	0.477 ± 0.029	0.452 ± 0.027
x1 = 0.01246	0.89 ± 0.019	0.702 ± 0.042	0.656 ± 0.04	0.617 ± 0.037	0.576 ± 0.035	0.538 ± 0.033	0.514 ± 0.031	0.488 ± 0.03
x1 = 0.01888	1.17 ± 0.025	0.766 ± 0.046	0.715 ± 0.043	0.672 ± 0.041	0.627 ± 0.038	0.585 ± 0.035	0.554 ± 0.034	0.525 ± 0.032
x1 = 0.02468	1.31 ± 0.027	0.822 ± 0.05	0.767 ± 0.046	0.715 ± 0.043	0.667 ± 0.04	0.622 ± 0.038	0.59 ± 0.036	0.558 ± 0.034
x1 = 0.03071	1.47 ± 0.03	0.893 ± 0.054	0.828 ± 0.05	0.774 ± 0.047	0.718 ± 0.044	0.67 ± 0.041	0.631 ± 0.038	0.596 ± 0.036
x1 = 0.03685	1.59 ± 0.033	0.963 ± 0.058	0.891 ± 0.054	0.827 ± 0.05	0.77 ± 0.047	0.719 ± 0.044	0.675 ± 0.041	0.636 ± 0.039
x1 = 0.04275	1.67 ± 0.034	1.048 ± 0.064	0.966 ± 0.059	0.894 ± 0.054	0.83 ± 0.05	0.773 ± 0.047	0.724 ± 0.044	0.68 ± 0.041
x1 = 0.05163	1.78 ± 0.036	1.152 ± 0.07	1.06 ± 0.064	0.979 ± 0.06	0.907 ± 0.055	0.844 ± 0.051	0.788 ± 0.048	0.739 ± 0.045
x1 = 0.05988	1.83 ± 0.037	1.267 ± 0.077	1.162 ± 0.071	1.07 ± 0.065	0.989 ± 0.06	0.918 ± 0.056	0.856 ± 0.052	0.801 ± 0.049
x1 = 0.07419	1.89 ± 0.038	1.484 ± 0.091	1.356 ± 0.083	1.244 ± 0.076	1.146 ± 0.07	1.06 ± 0.065	0.985 ± 0.06	0.919 ± 0.056
x1 = 0.08753	1.9 ± 0.038	1.71 ± 0.11	1.56 ± 0.096	1.429 ± 0.088	1.313 ± 0.08	1.21 ± 0.074	1.119 ± 0.068	1.04 ± 0.064

CC(=O)[O-].CCCCCCCCCCCCCC[P+](CCCCCC)(CCCCCC)CCCCCC + COCCOCCOCCOCCOC
100 kPa
Conditions	viscosity [mPa·s]
278.15 K, x2 = 0.207	651 ± 35
278.15 K, x2 = 0.499	176 ± 5
283.15 K, x2 = 0.207	462 ± 22
288.15 K, x2 = 0.103	549 ± 28
288.15 K, x2 = 0.4	145 ± 4
298.15 K, x2 = 0.103	287 ± 11
298.15 K, x2 = 0.4	88 ± 1
313.15 K, x2 = 0.103	130 ± 3

NC(=O)C(F)(F)F + C[P+](c1ccccc1)(c1ccccc1)c1ccccc1.[Br-]
288.15 K, 101.3 kPa, x1 = 0.889
Conditions	electrical conductivity [S/m]	viscosity [mPa·s]
–	0.035 ± 0.014	410
